Assay results taken from article PMC11530130, “Peripherally restricted PICK1 inhibitor mPD5 ameliorates pain behaviors in murine inflammatory and neuropathic pain models” (JCI Insight, 2024).
Several values for one entry are separate records, joined by “and”; a condition that tells them apart may be missing. Identical values can stand only once.

System: mice, CIBP model (NCTC 2472 cell inoculation)
Test: Cancer-induced bone pain (CIBP) model, von Frey
Type: in vivo, mouse
Conditions: for effect on PWT: CIBP, female mice
Procedure: solution (0.05 mg/kg) injected s.c. 30 min before surgery (10 μL/g). For surgery, mice were anaesthetised with ketamine (100 mg/kg, i.p.) and xylazine (10 mg/kg, i.p.) (volume 10 µL/g) with 100 μL of 1% xylocaine solution infiltrated at the site of the incision. The distal trifurcation of the sciatic nerve was identified, and the tibial and common peroneal branches were ligated with polypropylene nonabsorbable 6-0 sutures (Ethicon) and 1 mm was cut out, leaving the sural branch intact. The wound was closed with sutures, and the animals were allowed to recover and returned to their cages. Two subcutaneous injections of buprenorphine (0.05 mg/kg) were performed with an 8 to 12 hours delay decreasing pain due to the surgery […]
The remaining SNI pain experiments were performed in-house using the following procedure.
SNI surgery was performed on the left hindleg of C57BL/6J male and female mice (Janvier, France) under 2% isoflurane anaesthesia. Skin on the lateral surface was incised between hip and knee followed by lengthwise division of the biceps femoris muscle leading to exposure of the three branches of the sciatic nerve. Sural branch was left intact, while the peroneal and tibial branches were ligated with a single surgical knot and axotomized distally of the ligation.
Wounds were closed with surgical glue or medical clips and animals were monitored daily for signs of stress or discomfort, but in all cases recovered uneventfully.
Induction of Diabetic neuropathy (STZ model).
Diabetes was induced by a single i.p. injection of […] streptozocin (STZ) solution (100 μL/10 g, Sigma-Aldrich S0130, batch #WXBB7152V) in male seven-week-old C57BL/6J (Charles River) mice. Glycemia was tested before, and seven days after injection. All injected mice had blood glucose concentration >350 mg/dL from day seven and were used for analgesic testing of the compounds from day 14. One mouse had to be euthanized at seven days post injection. This experiment was performed by Phenotype Expertise, Marseilles, France - Pain and CNS behaviour CRO under supervision of Stéphane Gaillard, PhD (CEO).
Induction of cancer induced bone pain (CIBP model).
Osteosarcoma cell line NCTC 2472 (American Type Culture Collection, CCL-11TM) was cultured for two weeks prior to surgery in NCTC-135 medium (Sigma-Aldrich, Denmark) supplemented with sodium hydrogen carbonate and 10% equine serum (Sigma-Aldrich, Denmark). On the day of surgery, cells were washed with PBS and incubated with 3 mL trypsin-EDTA for five min followed by centrifugation (2800 rpm, 3 min). Supernatant was removed, and cell pellet resuspended in PBS to obtain a cell density of 10^7 cells/mL.
Two separate cohorts of female C3H/HeNHsd mice (Envigo, Netherlands) of 7-8 weeks, were anaesthetized with 6.25 mg/kg xylazine (Rompun vet, 20 mg/mL, Bayer, KVP Pharma + Veterinär Produkte GmbH, Germany, Batch: KV02BHF) and 43.75 mg/kg ketamine (Ketaminol vet, 100 mg/mL, MSD Animal Health, AN Boxmeer, The Netherlands, Batch:
A140A01) and received 1.0-1.2% isoflurane (1000 mg/g isoflurane, Attane vet, ScanVet, Piramal Critical Care Ltd., UK, Batch: G123J18B) during surgery. The mouse was placed on a 37 °C heating pad. Both hind legs were shaved, and a small horizontal incision was made under the knee followed by a vertical incision of approximately 0.5 cm until the patellar tendon was exposed. The patellar tendon was moved to the lateral side exposing the distal epiphysis of the femur. A hole was made in the middle of the distal epiphysis by gently pushing a 30 G needle (0.3x12 mm, 30 Gx1/2”, Luer-Lock, CHIRANA T. Injecta, CH30012) through the bone while rotating. The position of the needle was confirmed by X-ray imaging (IVIS Lumina XR Apparatus, Caliper Life Sciences, Belgium). Following resuspension, 10 μL, corresponding to […]
[…] NCTC 2472 cells or PBS (sham mice), was injected in the bone marrow cavity with an insulin syringe (1 mL Luer, BD PlastipakTM, 303172) attached to a 30 G needle and left in the […]
femur for one min. […]

Row | Compound | von Frey paw withdrawal threshold, individual animals (Fig 4C) (BL1 (baseline 1)) | von Frey paw withdrawal threshold, individual animals (Fig 4C) (BL2 (baseline 2)) | effect on PWT (s.c. 5 mg/kg) | von Frey paw withdrawal threshold, individual animals (Fig 4C) (Post (after treatment)) | von Frey paw withdrawal threshold, individual animals (Fig 4C) (Pre (before treatment)) | effect on PWT (s.c. 10 μmol/kg)
1 | CN1CC[C@]23c4c5ccc(O)c4O[C@H]2[C@@H](O)C=C[C@H]3[C@H]1C5 [morphine] | 1.5 and 0.8 and 0.6 and 1 (2×) and 0.9 and 1.3 and 2 and 1.7 and 1.2 | 2.9 and 1.1 and 0.8 and 2.6 and 1.3 (2×) and 1.9 and 2.1 (2×) and 1.2 | partial but significant increase | 1.1 (2×) and 1 (2×) and 1.2 (3×) and 0.9 and 1.3 (2×) | 0.6 (2×) and 0.2 (3×) and 0.4 (3×) and 0.5 and 0.3 | 
2 | CCCCCCCCCCCCCC(=O)N(CCOCCOCCC(=O)N[C@@H](Cc1c[nH]cn1)C(=O)N[C@@H](Cc1c[nH]c2ccccc12)C(=O)N[C@@H](CC(C)C)C(=O)N[C@@H](CCCCN)C(=O)N[C@H](C(=O)O)C(C)C)CCOCCOCCC(=O)N[C@@H](Cc1c[nH]cn1)C(=O)N[C@@H](Cc1c[nH]c2ccccc12)C(=O)N[C@@H](CC(C)C)C(=O)N[C@@H](CCCCN)C(=O)N[C@H](C(=O)O)C(C)C [mPD5, myristoyl-NPEG4-(HWLKV)2] |  |  |  |  |  | no effect
